Reference: the supplement of paper PMC10307832

What was measured:
Experiment in all cases: relative viability (nuclei count vs DMSO), 5 days (fraction); higher = more cells survive
BAY61-3606 + Bortezomib = compound: COC1=C(C=C(C=C1)C2=CC3=NC=CN3C(=N2)NC4=C(C=CC=N4)C(=O)N)OC [BAY61-3606] + CC(C)C[C@H](NC(=O)[C@H](Cc1ccccc1)NC(=O)c1cnccn1)B(O)O [Bortezomib] (partner 0.002 µM)
Summary of the method: (§1)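 For relative viability, nuclei counts in treated wells were divided by those in vehicle wells. Lung cancer cell lines had been pin-tool dosed in 1536-well plates the day after seeding and cultured for 5 days, then fixed and stained in one step (final 0.05% Triton X-100, 1% formaldehyde, 1 ug/ml Hoechst) and imaged at 4×. Doses were one drug alone or a fixed anchor-drug dose plus five library-drug doses (not always all listed) in √10 steps, and values are duplicate-plate medians.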

BAY61-3606 + Navitoclax = compound: COC1=C(C=C(C=C1)C2=CC3=NC=CN3C(=N2)NC4=C(C=CC=N4)C(=O)N)OC [BAY61-3606] + CC1(C)CCC(c2ccc(Cl)cc2)=C(CN2CCN(c3ccc(C(=O)NS(=O)(=O)c4ccc(N[C@H](CCN5CCOCC5)CSc5ccccc5)c(S(=O)(=O)C(F)(F)F)c4)cc3)CC2)C1 [Navitoclax] (partner 0.5 µM)
Summary of the method: as §1

BAY61-3606 + Pemetrexed = compound: COC1=C(C=C(C=C1)C2=CC3=NC=CN3C(=N2)NC4=C(C=CC=N4)C(=O)N)OC [BAY61-3606] + Nc1nc2[nH]cc(CCc3ccc(C(=O)N[C@@H](CCC(=O)O)C(=O)O)cc3)c2c(=O)[nH]1 [Pemetrexed] (partner 0.2 µM)
Summary of the method: as §1

Doxorubicin + Phenformin = compound: COc1cccc2c1C(=O)c1c(O)c3c(c(O)c1C2=O)C[C@@](O)(C(=O)CO)C[C@@H]3O[C@H]1C[C@H](N)[C@H](O)[C@H](C)O1 [Doxorubicin] + N=C(N)NC(=N)NCCc1ccccc1 [Phenformin] (partner 250 µM)
Summary of the method: as §1

| Cell Line | relative viability (BAY61-3606 + Bortezomib; first compound 0.02 µM) | relative viability (BAY61-3606 + Bortezomib; first compound 0.06325 µM) | relative viability (BAY61-3606 + Bortezomib; first compound 0.2 µM) | relative viability (BAY61-3606 + Bortezomib; first compound 0.6325 µM) | relative viability (BAY61-3606 + Bortezomib; first compound 2 µM) | relative viability (BAY61-3606 + Navitoclax; first compound 0.02 µM) | relative viability (BAY61-3606 + Navitoclax; first compound 0.06325 µM) | relative viability (BAY61-3606 + Navitoclax; first compound 0.2 µM) | relative viability (BAY61-3606 + Navitoclax; first compound 0.6325 µM) | relative viability (BAY61-3606 + Navitoclax; first compound 2 µM) | relative viability (BAY61-3606 + Pemetrexed; first compound 0.02 µM) | relative viability (BAY61-3606 + Pemetrexed; first compound 0.06325 µM) | relative viability (BAY61-3606 + Pemetrexed; first compound 0.2 µM) | relative viability (BAY61-3606 + Pemetrexed; first compound 0.6325 µM) | relative viability (BAY61-3606 + Pemetrexed; first compound 2 µM) | relative viability (Doxorubicin + Phenformin; first compound 0.001 µM) | relative viability (Doxorubicin + Phenformin; first compound 0.003162 µM) | relative viability (Doxorubicin + Phenformin; first compound 0.01 µM) | relative viability (Doxorubicin + Phenformin; first compound 0.03162 µM) | relative viability (Doxorubicin + Phenformin; first compound 0.1 µM) |
| --- | --- | --- | --- | --- | --- | --- | --- | --- | --- | --- | --- | --- | --- | --- | --- | --- | --- | --- | --- | --- |
| NCI-H2085 | 1.11 | 1.07 | 1.06 | 1.13 | 0.953 | 1.31 | 1.23 | 1.12 | 1.33 | 1.01 | 0.984 | 0.946 | 0.861 | 1.08 | 0.898 | 0.733 | 0.709 | 0.653 | 0.545 | 0.478 |
| NCI-H2087 | 0.908 | 0.862 | 0.869 | 0.759 | 0.746 | 0.896 | 1.06 | 0.981 | 0.922 | 0.82 | 0.578 | 0.685 | 0.682 | 0.625 | 0.588 |  | 0.45 | 0.405 | 0.273 | 0.247 |
| NCI-H2126 | 1.11 | 1.13 | 1.08 | 1.08 | 1.07 | 0.88 | 0.823 | 0.769 | 0.759 | 0.742 | 0.708 | 0.654 | 0.639 | 0.713 | 0.58 | 0.556 | 0.531 | 0.475 | 0.299 | 0.273 |
| NCI-H2228 | 1.32 | 1.17 | 0.916 | 1.22 | 0.567 | 1.18 | 0.736 | 0.658 | 1.08 | 0.713 | 0.326 | 0.325 | 0.391 | 0.393 | 0.369 | 0.284 | 0.312 | 0.242 | 0.107 | 0.118 |
| NCI-H2347 | 1.09 | 0.815 | 0.971 | 0.869 | 1.01 | 0.802 | 0.789 | 0.859 | 0.936 | 0.754 | 0.429 | 0.424 | 0.438 | 0.418 | 0.403 | 0.434 | 0.513 | 0.428 | 0.374 | 0.273 |
| NCI-H2405 | 0.992 | 0.973 | 0.961 | 0.964 | 0.942 | 0.904 | 0.669 | 0.857 | 1.08 | 0.655 | 1.09 | 1.08 | 1.01 | 1.01 | 0.82 | 0.346 | 0.373 | 0.436 | 0.419 | 0.355 |
| NCI-H3122 | 0.947 | 1.02 | 1.05 | 0.988 | 1 | 0.975 | 0.962 | 1.05 | 1 | 0.987 | 0.208 | 0.219 | 0.211 | 0.187 | 0.201 | 0.369 | 0.365 | 0.337 | 0.245 | 0.148 |
| PC-3 [JPC-3] | 0.833 | 0.841 | 0.826 | 0.834 | 0.793 | 0.826 | 0.849 | 0.773 | 0.805 | 0.776 | 1.12 | 1.05 | 1.21 | 1.13 | 1.04 | 0.448 | 0.478 | 0.515 | 0.468 | 0.471 |
| PC-14 | 0.829 | 0.883 | 0.801 | 0.949 | 0.728 | 1.04 | 1.11 | 0.983 | 1.01 | 0.982 | 0.159 | 0.136 | 0.134 | 0.137 | 0.148 | 0.421 | 0.629 | 0.709 | 0.284 | 0.213 |
| RERF-LC-KJ | 1.2 | 1.13 | 1.06 | 1.17 | 0.85 | 0.759 | 0.9 | 0.975 | 0.83 | 0.876 | 0.467 | 0.463 | 0.501 | 0.484 | 0.432 | 0.397 | 0.443 | 0.372 | 0.325 | 0.271 |
| SK-LU-1 | 1.38 | 1.15 | 1.12 | 1.21 | 0.961 | 1.19 | 0.836 | 0.695 | 0.812 | 0.55 | 0.974 | 1.02 | 1.01 | 0.968 | 0.661 | 0.367 | 0.558 | 0.449 | 0.226 | 0.173 |
| SW 1573 | 1.16 | 1.18 | 0.971 | 1.02 | 0.66 | 0.84 | 0.918 | 0.832 | 0.97 | 0.683 | 0.924 | 0.833 | 0.804 | 0.916 | 0.53 | 0.337 | 0.355 | 0.216 | 0.111 | 0.0738 |
